Values quoted from earlier work, collected in patent publication US8293800B2, “Quinone derivative 2,3-dimethoxy-5-methyl-6-(10-hydroxydecyl)-1,4-benzoquinone for the treatment of primary progressive multiple sclerosis” (Santhera Pharmaceuticals (Schweiz) AG, priority 2009, dated 2012).

Key:
[1] = chronic-progressive form of MS; 90 mg/day in combination with methylprednisolone over 240 days
[2] = PP-MS cohort; did not reach statistical significance
[3] = PP-MS, placebo-controlled Phase II
[4] = PP-MS patients

Compound: COC1=C(OC)C(=O)C(CCCCCCCCCCO)=C(C)C1=O [Idebenone, 2,3-dimethoxy-5-methyl-6-(10-hydroxydecyl)-1,4-benzoquinone]
- clinical or neurophysiological efficacy [1]: could not be shown to have any clinical or neurophysiological efficacy

Compound: Nc1nc2ccc(OC(F)(F)F)cc2s1 [riluzole]
- inhibiting the development of cervical cord atrophy [2]: mild effect

Compound: Rituximab: Rituximab, tested in a placebo-controlled Phase II trial in PP-MS
- effect on the accumulation of disability [3]: failed to demonstrate any effect

Compound: interferon-beta
- could slow down the accumulation of disability in PP-MS [4]: Neither
